What follows are molecules tested against T1, b-Raf(V600E) (Homo sapiens, UniProt P15056, V600E) (assay: Raf/Mek Amplified Luminescence Proximity Homogeneous Assay (Alpha Screen), b-Raf(V600E)). Details: mutant b-Raf(V600E), read-out: mut-b-RAF (IC50 in uM).
T1 construct: made in house
Assay type: biochemical
Procedure, shortened: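 IC50 derived by non-linear regression from AlphaScreen luminescence of phospho-MEK (anti-p-MEK antibody). Reaction: ~4 pM b-Raf(V600E), ~10 nM kinase-dead biotinylated Mek, 60 min compound pre-incubation, then 3 h with ATP at room temperature in pH 7.5 Tris/MgCl2/DTT buffer, quenched with EDTA.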

T1 sequence (P15056 whole entry V600E): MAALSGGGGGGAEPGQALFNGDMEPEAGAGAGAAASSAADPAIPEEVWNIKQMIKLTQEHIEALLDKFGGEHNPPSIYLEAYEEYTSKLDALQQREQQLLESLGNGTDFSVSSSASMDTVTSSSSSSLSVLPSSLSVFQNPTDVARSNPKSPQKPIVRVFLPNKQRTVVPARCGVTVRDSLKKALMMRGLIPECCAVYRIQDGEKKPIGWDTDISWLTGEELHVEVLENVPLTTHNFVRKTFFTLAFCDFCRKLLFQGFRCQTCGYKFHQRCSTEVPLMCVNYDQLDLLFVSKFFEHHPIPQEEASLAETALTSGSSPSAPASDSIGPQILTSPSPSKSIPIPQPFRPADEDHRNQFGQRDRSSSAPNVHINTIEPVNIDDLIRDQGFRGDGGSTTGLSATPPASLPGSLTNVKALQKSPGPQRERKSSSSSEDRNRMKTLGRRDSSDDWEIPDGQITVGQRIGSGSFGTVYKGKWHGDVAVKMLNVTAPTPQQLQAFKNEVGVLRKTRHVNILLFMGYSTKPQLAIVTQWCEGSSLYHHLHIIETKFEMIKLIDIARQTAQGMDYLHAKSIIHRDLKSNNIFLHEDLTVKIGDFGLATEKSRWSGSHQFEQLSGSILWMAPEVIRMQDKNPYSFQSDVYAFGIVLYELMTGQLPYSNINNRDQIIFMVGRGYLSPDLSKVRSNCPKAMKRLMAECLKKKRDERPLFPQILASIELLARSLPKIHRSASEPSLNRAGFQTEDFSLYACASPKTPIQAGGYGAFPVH

| Structure (SMILES) | IC50 [µM] |
| --- | --- |
| COc1cc(-c2[nH]c(-c3cccc(S(N)(=O)=O)c3)nc2-c2ccncc2)cnc1N [Compound 132, 3-(5-(6-amino-5-methoxypyridin-3-yl)-4-(pyridin-4-yl)-1H-imidazol-2-yl)benzenesulfonamide] | 0.001 |
| Nc1ncc(-c2[nH]c(-c3ccccc3)nc2-c2ccncc2)cn1 [Compound 25, 5-(2-phenyl-4-(pyridin-4-yl)-1H-imidazol-5-yl)pyrimidin-2-amine] | 0.489 |
| c1ccc(-c2nc(-c3ccncc3)c(-c3cnc4c(c3)CCN4)[nH]2)cc1 [Compound 52, 5-(2-phenyl-4-(pyridin-4-yl)-1H-imidazol-5-yl)-2,3-dihydro-1H-pyrrolo[2,3-b]pyridine] | 0.0123 |
| COc1cc(-c2nc(C(C)(C)C)oc2-c2ccnc(NCC(C)C)c2)cnc1N [Compound 246, 4-(4-(6-amino-5-methoxypyridin-3-yl)-2-tert-butyloxazol-5-yl)-N-isobutylpyridin-2-amine] | 0.0001 |
| COc1cc(-c2[nH]c(-c3ccc(C#N)cc3)nc2-c2ccncc2)cnc1N [Compound 104, 4-(5-(6-amino-5-methoxypyridin-3-yl)-4-(pyridin-4-yl)-1H-imidazol-2-yl)benzonitrile] | 0.0014 |
| COCC(=O)NCCNc1nccc(-c2nc(-c3ccc(F)cc3)[nH]c2-c2cnc3[nH]cc(Br)c3c2)n1 [Compound 166, N-(2-(4-(5-(3-bromo-1H-pyrrolo[2,3-b]pyridin-5-yl)-2-(4-fluorophenyl)-1H-imidazol-4-yl)pyrimidin-2-ylamino)ethyl)-2-methoxyacetamide] | 0.0001 |
| COc1cc(-c2[nH]c(-c3ccccc3C)nc2-c2ccncc2)cnc1N [Compound 138, 3-methoxy-5-(4-(pyridin-4-yl)-2-o-tolyl-1H-imidazol-5-yl)pyridin-2-amine] | 0.0012 |
| COc1cc(-c2[nH]c(-c3ccccc3)nc2-c2ccnc(N[C@@H]3CCCNC3)n2)cnc1N [Compound 65, (R)-4-(5-(6-amino-5-methoxypyridin-3-yl)-2-phenyl-1H-imidazol-4-yl)-N-(piperidin-3-yl)pyrimidin-2-amine] | 0.0599 |
| COc1cc(-c2[nH]c(-c3ccccc3)nc2-c2ccnc(NCCNS(C)(=O)=O)n2)cnc1N [Compound 99, N-(2-(4-(5-(6-amino-5-methoxypyridin-3-yl)-2-phenyl-1H-imidazol-4-yl)pyrimidin-2-ylamino)ethyl)methanesul-fonamide] | 0.0001 |
| COc1cc(-c2nc(C(C)C)[nH]c2-c2ccncc2)cnc1N [Compound 140, 5-(2-isopropyl-5-(pyridin-4-yl)-1H-imidazol-4-yl)-3-methoxypyridin-2-amine] | 0.0016 |
| COCC(=O)N[C@@H](C)CNc1nccc(-c2[nH]c(-c3ccc(C(F)(F)F)cc3)nc2-c2cnc(N)c(OC)n2)n1 [Example 4, (S)—N-(1-(4-(4-(5-amino-6-methoxypyrazin-2-yl)-2-(4-(trifluoromethyl)phenyl)-1H-imidazol-5-yl)pyrimidin-2-ylamino)propan-2-yl)-2-methoxyacetamide] | 0.0001 |
| Nc1cc(-c2[nH]c(-c3ccccc3)nc2-c2ccncc2)ccn1 [Compound 27, 4-(2-phenyl-4-(pyridin-4-yl)-1H-imidazol-5-yl)pyridin-2-amine] | 0.417 |
| COc1cc(-c2[nH]c(-c3ccc(F)c(C)c3)nc2-c2ccncc2)cnc1N [Compound 149, 5-(2-(4-fluoro-3-methylphenyl)-4-(pyridin-4-yl)-1H-imidazol-5-yl)-3-methoxypyridin-2-amine] | 0.0006 |
| COCC(=O)NCCNc1nccc(-c2nc(-c3ccc(F)cc3)[nH]c2-c2cnc3[nH]cc(Cl)c3c2)n1 [Compound 160, N-(2-(4-(5-(3-chloro-1H-pyrrolo[2,3-b]pyridin-5-yl)-2-(4-fluorophenyl)-1H-imidazol-4-yl)pyrimidin-2-ylamino)ethyl)-2-methoxyacetamide] | 0.0003 |
| COc1cc(-c2[nH]c(-c3cccc(OC)c3F)nc2-c2ccncc2)cnc1N [Compound 116, 5-(2-(2-fluoro-3-methoxyphenyl)-4-(pyridin-4-yl)-1H-imidazol-5-yl)-3-methoxypyridin-2-amine] | 0.0017 |
| COc1cc(Nc2nccc(-c3[nH]c(C)nc3-c3cnc(N)c(OC)n3)n2)ccn1 [Compound 245, 4-(4-(5-amino-6-methoxypyrazin-2-yl)-2-methyl-1H-imidazol-5-yl)-N-(2-methoxypyridin-4-yl)pyrimidin-2-amine] | 0.011 |
| COc1cc(-c2nc(-c3ccccc3)[nH]c2-c2ccncc2)cnc1N [Example 1, 3-Methoxy-5-(2-phenyl-5-(pyridine-4-yl)-1H-imidazol-4-yl)pyridine-2-amine] | 0.001 |
| CNC(=O)N[C@@H](C)CNc1nccc(-c2[nH]c(C(C)(C)C)nc2-c2cnc(N)c(OC)c2)n1 [Compound 219, (S)-1-(1-(4-(4-(6-amino-5-methoxypyridin-3-yl)-2-tert-butyl-1H-imidazol-5-yl)pyrimidin-2-ylamino)propan-2-yl)-3-methylurea] | 0.0003 |
| COc1nc(-c2nc(C(C)(C)C)[nH]c2-c2ccnc(NC[C@H](C)NC(=O)OCC(C)(C)C)n2)cnc1N [Compound 238, (S)-neopentyl 1-(4-(4-(5-amino-6-methoxypyrazin-2-yl)-2-tert-butyl-1H-imidazol-5-yl)pyrimidin-2-ylamino)propan-2-ylcarbamate] | 0.0001 |
| CN(C)c1cncc(-c2[nH]c(-c3ccc(F)cc3)nc2-c2ccncc2)c1 [Compound 157, 5-(2-(4-fluorophenyl)-4-(pyridin-4-yl)-1H-imidazol-5-yl)-N,N-dimethylpyridin-3-amine] | 0.017 |
| Nc1ncc(-c2[nH]c(-c3ccccc3)nc2-c2ccncc2)cc1O [Compound 143, 2-amino-5-(2-phenyl-4-(pyridin-4-yl)-1H-imidazol-5-yl)pyridin-3-ol] | 0.215 |
| c1ccc(-c2nc(-c3ccncc3)c(-c3ccc4cn[nH]c4c3)[nH]2)cc1 [Compound 32, 6-(2-phenyl-4-(pyridin-4-yl)-1H-imidazol-5-yl)-1H-indazole] | 0.017 |

The next lines start with the values.

| IC50 [µM] | Structure (SMILES) |
| --- | --- |
| 0.004 | COc1cc(-c2[nH]c(-c3ccc(F)cc3)nc2-c2ccnc(N[C@H]3CCN(S(C)(=O)=O)C3)n2)cnc1N [Compound 200, (S)-4-(5-(6-amino-5-methoxypyridin-3-yl)-2-(4-fluorophenyl)-1H-imidazol-4-yl)-N-(1-(methylsulfonyl)pyrrolidin-3-yl)pyrimidin-2-amine] |
| 0.0023 | CCNc1nccc(-c2nc(-c3ccc(F)cc3)[nH]c2-c2cnc(N)c(OC)c2)n1 [Compound 174, 4-(5-(6-amino-5-methoxypyridin-3-yl)-2-(4-fluorophenyl)-1H-imidazol-4-yl)-N-ethylpyrimidin-2-amine] |
| 0.014 | COc1cc(-c2nc(-c3ccc(C(F)(F)F)cc3)oc2-c2ccnc(NCC(C)C)n2)cnc1N [Compound 224, 4-(4-(6-amino-5-methoxypyridin-3-yl)-2-(4-(trifluoromethyl)phenyl)oxazol-5-yl)-N-isobutylpyrimidin-2-amine] |
| 0.0002 | COCC(=O)N[C@@H](C)CNc1nccc(-c2[nH]c(-c3ccc(C(F)(F)F)cc3F)nc2-c2cnc(N)c(OC)c2)n1 [Compound 216, (S)-N-(1-(4-(6-(6-amino-5-methoxypyridin-3-yl)-2-(2-fluoro-4-(trifluoromethyl)phenyl)-1H-imidazol-5-yl)pyrimidin-2-ylamino)propan-2-yl)-2-methoxyacetamide] |
| 0.12 | COc1cc(-c2nc(-c3ccccc3)[nH]c2-c2ccnc(C)c2)cnc1N [Compound 48, 3-methoxy-5-(5-(2-methylpyridin-4-yl)-2-phenyl-1H-imidazol-4-yl)pyridin-2-amine] |
| 0.0013 | COc1cc(-c2nc(-c3ccc(F)cc3)[nH]c2-c2ccnc(Nc3cccc(C(F)(F)F)c3)n2)cnc1N [Compound 171, 4-(4-(6-amino-5-methoxypyridin-3-yl)-2-(4-fluorophenyl)-1H-imidazol-5-yl)-N-(3-(trifluoromethyl)phenyl) pyrimidin-2-amine] |
| 0.0003 | COc1ccc(-c2nc(-c3ccncc3)c(-c3cnc(N)c(OC)c3)[nH]2)cc1 [Compound 69, 3-methoxy-5-(2-(4-methoxyphenyl)-4-(pyridin-4-yl)-1H-imidazol-5-yl)pyridin-2-amine] |
| 0.0259 | COCC(=O)N1CCC[C@@H](Nc2nccc(-c3nc(-c4ccc(F)cc4)[nH]c3-c3cnc(N)c(OC)c3)n2)C1 [Compound 100, (R)-1-(3-(4-(5-(6-amino-5-methoxypyridin-3-yl)-2-(4-fluorophenyl)-1H-imidazol-4-yl)pyrimidin-2-ylamino)piperidin-1-yl)-2-methoxyethanone] |
| 0.0005 | COc1cc(-c2nc(C(C)(C)C)[nH]c2-c2ccnc(NCc3ccc(C(F)(F)F)cc3)n2)cnc1N [Compound 215, 4-(4-(6-amino-5-methoxypyridin-3-yl)-2-tert-butyl-1H-imidazol-5-yl)-N-(4-(trifluoromethyl)benzyl)-pyrimidin-2-amine] |
| 0.002 | COc1cc(-c2nc(-c3ccc(OC(F)(F)F)cc3)[nH]c2-c2ccncc2)cnc1N [Compound 79, 3-methoxy-5-(5-(pyridin-4-yl)-2-(4-(trifluoromethoxy)phenyl)-1H-imidazol-4-yl)pyridin-2-amine] |
| 0.0088 | COc1cc(-c2[nH]c(-c3ccc(F)cc3)nc2-c2ccnc3[nH]ccc23)cnc1N [Compound 129, 5-(2-(4-fluorophenyl)-4-(1H-pyrrolo[2,3-b]pyridin-4-yl)-1H-imidazol-5-yl)-3-methoxypyridin-2-amine] |
| 0.0007 | COc1cc(-c2[nH]c(-c3ccc(F)cc3)nc2-c2ccnc(NCC3CC3)n2)cnc1N [Compound 183, 4-(5-(6-amino-5-methoxypyridin-3-yl)-2-(4-fluorophenyl)-1H-imidazol-4-yl)-N-(cyclopropylmethyl) pyrimidin-2-amine] |

Reference: patent US20100003246A1, “Novel heterocyclic compounds and uses therof” (priority 2008, published 2010)
